Test results taken from the supplement of paper PMC13380429.

Tests used:
Conditions in all cases: 72 h
[1] = system: Caco-2; assay: relative viability EC50 (midpoint between 100% and the lowest measured viability); higher = less toxic
[2] = system: HepG2; assay: as above
[3] = system: U2OS; assay: as above
[4] = system: Calu-3; assay: as above
[5] = system: Caco-2; assay: drug sensitivity score (DSS) for viability; higher = more toxic; extreme values may be limits of the assay
[6] = system: HepG2; assay: as above
[7] = system: U2OS; assay: as above
[8] = system: Calu-3; assay: as above
[9] = system: Caco-2; assay: cell viability relative to DMSO; higher = less toxic
[10] = system: HepG2; assay: as above
[11] = system: U2OS; assay: as above
[12] = system: Calu-3; assay: as above
[13] = system: Vero E6; assay: drug sensitivity score (DSS) for viability; higher = more toxic; extreme values may be limits of the assay
[14] = system: Vero E6; assay: cell viability relative to DMSO; higher = less toxic
[15] = system: Vero E6; assay: relative viability EC50 (midpoint between 100% and the lowest measured viability); higher = less toxic

Row | Compound | relative viability EC50 [1] [µM] | relative viability EC50 [2] [µM] | relative viability EC50 [3] [µM] | relative viability EC50 [4] [µM] | drug sensitivity score [5] | drug sensitivity score [6] | drug sensitivity score [7] | drug sensitivity score [8] | cell viability ([9]; 1 nM) [%] | cell viability ([9]; 10 nM) [%] | cell viability ([9]; 100 nM) [%] | cell viability ([9]; 1000 nM) [%] | cell viability ([9]; 10000 nM) [%] | cell viability ([10]; 1 nM) [%] | cell viability ([10]; 10 nM) [%] | cell viability ([10]; 100 nM) [%] | cell viability ([10]; 1000 nM) [%] | cell viability ([10]; 10000 nM) [%] | cell viability ([11]; 1 nM) [%] | cell viability ([11]; 10 nM) [%] | cell viability ([11]; 100 nM) [%] | cell viability ([11]; 1000 nM) [%] | cell viability ([11]; 10000 nM) [%] | cell viability ([12]; 1 nM) [%] | cell viability ([12]; 10 nM) [%] | cell viability ([12]; 100 nM) [%] | cell viability ([12]; 1000 nM) [%] | cell viability ([12]; 10000 nM) [%] | drug sensitivity score [13] | cell viability ([14]; 1 nM) [%] | cell viability ([14]; 10 nM) [%] | cell viability ([14]; 100 nM) [%] | cell viability ([14]; 1000 nM) [%] | cell viability ([14]; 10000 nM) [%] | relative viability EC50 [15] [µM]
1 | C=CCN1CCc2cc(O)c(O)cc2[C@H](c2ccccc2)C1 | > 10 | > 10 | > 10 | > 10 | 0.7 | 0.5 | 0 | 0 | 95.1 | 91.8 | 86.5 | 99.5 | 79.4 | 100 | 93.3 | 105 | 92.5 | 86.9 | 99.7 | 99.3 | 96.9 | 102 | 92.8 | 89.8 | 92 | 103 | 103 | 99 | – | – | – | – | – | – | –
2 | COc1ccc2c(NC(=O)Nc3cccc(C(F)(F)F)n3)ccnc2c1 | > 10 | > 10 | > 10 | > 10 | 0 | 0 | 0 | 0 | 97.7 | 106 | 100 | 95.5 | 93.4 | 108 | 108 | 93.8 | 105 | 95.6 | 102 | 96.6 | 106 | 101 | 104 | 97.6 | 99 | 96.1 | 94.8 | 93.6 | – | – | – | – | – | – | –
3 | COc1cccc(OCCCN)c1-c1cc(Nc2cnc(C#N)cn2)n[nH]1 | 0.194 | 0.0431 | 0.022 | 0.0872 | 17.6 | 21.7 | 31.6 | 13.3 | 98.9 | 101 | 86.7 | 15.5 | 21 | 97.4 | 97.4 | 35.7 | 38.3 | 25.6 | 101 | 86.7 | 5.2 | 2.8 | 2.5 | 106 | 99.9 | 69.6 | 48.1 | 57.8 | 9 | 92.9 | 101 | 84.9 | 61.1 | 65.3 | –
4 | Cc1cnc(-c2cnc(NCCNc3ccc(C#N)cn3)nc2-c2ccc(Cl)cc2Cl)[nH]1 | > 10 | > 10 | – | > 10 | 0 | 0 | – | 0 | 99.5 | 105 | 95.7 | 110 | 99.6 | 104 | 99.3 | 107 | 113 | 98.4 | – | – | – | – | – | 87.6 | 107 | 99.1 | 110 | 89.7 | 1.2 | 101 | 100 | 94.9 | 97.6 | 76.8 | > 10
5 | N#Cc1ccccc1OCC(O)CNCCNC(=O)Nc1ccccc1 (configuration not stated) | > 10 | > 10 | > 10 | > 10 | 0 | 0 | 0 | 0 | 101 | 102 | 91.4 | 99.5 | 101 | 108 | 102 | 110 | 107 | 93.6 | 99.5 | 94.3 | 95.3 | 95.7 | 97.1 | 100 | 94.7 | 102 | 92.8 | 92.4 | – | – | – | – | – | – | –
6 | Nc1ccc(C(=O)NCC(=O)O)cc1 [4-aminohippuric-acid] | > 10 | > 10 | – | > 10 | 0.1 | 0 | – | 0 | 97.1 | 99.7 | 100 | 89.5 | 93 | 100 | 107 | 99 | 104 | 89.8 | – | – | – | – | – | 106 | 91.1 | 109 | 106 | 101 | 0 | 97.5 | 99.1 | 101 | 100 | 96.2 | > 10
7 | CC(C)(C)c1ccc(/C=C/C(=O)Nc2ccc3c(c2)OCCO3)cc1 [AMG-9810] | – | 3.43 | > 10 | > 10 | 2.9 | 3.4 | 0 | 1.4 | 94.9 | 92.8 | 99.3 | 90.4 | 67.8 | 98.3 | 101 | 97.9 | 103 | 33.1 | 96.4 | 97.4 | 98.2 | 96.7 | 89.7 | 103 | 98.3 | 101 | 94.5 | 78.8 | 0 | 98.3 | 102 | 96 | 97 | 89.4 | > 10
8 | Cc1cnc(CNC(=O)c2c(=O)c3ccc(N4CCCN(C)CC4)nc3n3c2sc2ccccc23)cn1 [CX-5461] | > 10 | 1.16 | > 10 | > 10 | 0.5 | 7.6 | 0 | 0.3 | 106 | 114 | 95.5 | 121 | 75.9 | 110 | 108 | 110 | 71.6 | 30.5 | 99.5 | 102 | 96.9 | 106 | 98.4 | 93.9 | 105 | 100 | 100 | 84 | 4.7 | 114 | 92.3 | 106 | 84.2 | 53.3 | –
9 | CCCCCCN(CCCCCC)C(=O)Cc1c(-c2ccc(F)cc2)[nH]c2ccccc12 [FGIN-1-27] | – | > 10 | > 10 | > 10 | 2.2 | 0 | 0 | 0 | 99.5 | 99.6 | 89.2 | 94.3 | 68.6 | 104 | 95.2 | 94.3 | 106 | 96.6 | 98.5 | 102 | 103 | 100 | 92.3 | 96 | 99.2 | 99.8 | 102 | 89 | 0 | 98.6 | 94.5 | 94 | 95.2 | 92.8 | > 10
10 | O=C(NCCS(=O)(=O)c1ccc(C(F)(F)F)cn1)c1ccc(Cl)cc1 [GSK3787] | > 10 | > 10 | – | > 10 | 0 | 0 | – | 0 | 99.8 | 95.5 | 102 | 99.7 | 99.8 | 97.7 | 102 | 117 | 99.6 | 102 | – | – | – | – | – | 104 | 94.8 | 103 | 100 | 97.7 | 0 | 97.8 | 97.3 | 91.2 | 89.9 | 101 | > 10
11 | CCc1cnc(N2CCC(c3nc(COc4ccc(-n5cnnn5)cc4)cs3)CC2)nc1 [MBX-2982] | – | 3.13 | > 10 | > 10 | 2.1 | 3.5 | 0 | 0 | 95.8 | 107 | 86.9 | 96.1 | 67.5 | 97.4 | 94.6 | 93.2 | 99.7 | 36 | 103 | 94.8 | 96.7 | 96.2 | 93.7 | 97.5 | 92 | 109 | 102 | 103 | 0.9 | 102 | 106 | 105 | 97.2 | 80.4 | > 10
12 | Cc1ccc(-c2ncn(-c3ccc(Nc4nccc(-c5cccc(N6CCOCC6)c5)n4)cc3)n2)cn1 [SR-3306] | – | 3.04 | > 10 | > 10 | 2.6 | 3.3 | 0.6 | 0 | 99.3 | 98.7 | 95.9 | 92.2 | 67.5 | 99.8 | 90.8 | 100 | 98.9 | 40.9 | 102 | 104 | 97.9 | 103 | 78 | 99.9 | 98.3 | 87.8 | 94.7 | 98.6 | 0 | 109 | 109 | 106 | 99.1 | 92.9 | > 10
13 | COc1cccc(OC)c1OCCNC[C@H]1COc2ccccc2O1 [WB-4101] | > 10 | > 10 | – | > 10 | 0.1 | 0 | – | 1.4 | 105 | 104 | 106 | 106 | 85.3 | 106 | 109 | 107 | 103 | 93.2 | – | – | – | – | – | 107 | 102 | 104 | 90.9 | 80.8 | 0 | 104 | 100 | 99.1 | 98.2 | 98.5 | > 10
14 | CC[N+](CC)(CCCNC1=CC(=O)C(NCCC[N+](CC)(CC)Cc2ccccc2)=CC1=O)Cc1ccccc1 [benzoquinonium-dibromide] | > 10 | > 10 | > 10 | > 10 | 0 | 0 | 0 | 0 | 94.5 | 98.6 | 95.4 | 96.3 | 91.7 | 96.3 | 106 | 95.2 | 100 | 95 | 94.6 | 94.4 | 96.8 | 95.8 | 98.3 | 103 | 92.9 | 108 | 104 | 96.8 | – | – | – | – | – | – | –
15 | N#Cc1cnc2c(Cl)cc(NCc3cn(CCN4CCCCCC4)nn3)cc2c1Nc1ccc(F)c(Cl)c1 [cot-inhibitor-1] | – | > 10 | > 10 | > 10 | 1.7 | 0.2 | 0.7 | 0 | 92.1 | 99.7 | 105 | 98 | 67.8 | 95 | 107 | 96.7 | 120 | 80.6 | 102 | 103 | 101 | 101 | 77 | 104 | 103 | 99.5 | 96.9 | 96.2 | 0 | 94.2 | 102 | 92.2 | 96.9 | 103 | > 10
